In US7482329B2, “Single domain TDF-related compounds and analogs thereof” (Thrasos Therapeutics, priority 2002, dated 2009):

Legend:
[1] = target: T1, BMPR-1A (ALK3) receptor extra cellular domain (Homo sapiens, UniProt P36894); test: Radio-ligand receptor binding assay, competition with 125I-labeled TDF-1 for ALK-3; settings: competitive binding assay, FIG. 2
T1 construct: immobilized BMPR-1A receptor extra cellular domain (ECD)
Excerpt: (§1) General protocol: These assays are based on competition between ^125I-labeled TDF-1 (BMP-7 or OP-1) and candidate TDFRP compounds or unlabeled TDF-1 for binding to respective receptors (ALK-3, ALK-6 or BMPR-2). In brief, the procedure involves immobilization of receptor on 96 well Removawell plates, blocking the wells with 3% BSA in PBS and subsequently washing the wells. Increasing concentrations of unlabeled TDF-1 or TDFRP compounds or control (unlabeled TDF-1) prepared in binding buffer are then added. Incubate plate for 1 hour at room temperature, and then add a fixed amount of ^125I-labeled TDF-1 (250,000 to 350,000 cpm) to the wells and further incubate in cold (4° C.) for 20 hours. Aspirate the contents of the wells and wash the wells four times with a wash buffer, and count the receptor bound ^125I-labeled TDF-1 in an auto gamma counter. B. HK-2 Cell Culture and Determination of Cytokine Production

[2] = target: T2, BMPR-2 receptor extra cellular domain (Homo sapiens, UniProt Q13873); test: Radio-ligand receptor binding assay, competition with 125I-labeled TDF-1 for BMPR-2; settings: competitive binding, FIG. 4
T2 construct: immobilized BMPR-2 receptor extra cellular domain (ECD)
T2 sequence (Q13873 27-150 limits assumed): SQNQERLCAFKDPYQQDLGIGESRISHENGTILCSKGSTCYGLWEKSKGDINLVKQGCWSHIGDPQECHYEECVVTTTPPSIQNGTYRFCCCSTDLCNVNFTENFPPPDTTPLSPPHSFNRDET
Excerpt: as §1

HK-2 cells = test: Anti-inflammatory activity in HK-2 cell culture (FIG. 11-13); assay type: cell-based, human; settings: marker not stated
Method: (§2) The immortalized PTEC-derived HK-2 (Human Kidney-2) cells (ATCC number CRL-2190) were grown in serum-free keratinocyte medium (GIBCO number 17005-042) supplemented with epidermal growth factor (EGF: 5 ng/mL) and bovine pituitary extract (40 ug/mL) for 48 hours as described previously (Ryan et al (1994) Kidney International 45:48-57). Cells were transferred to 24-well plates at a density of 3×10^5 cells per well. After 24 hours, cells were incubated with fresh medium containing TNF-alpha (5 ng/mL) for 20 hours. Controls received medium alone. Then cells were washed twice with fresh culture medium and further incubated with culture medium alone (medium control, and TNF control wells) or TDF-1 at three different concentrations (40, 200 or 1000 ng/mL) or TDFRP compounds at three different concentrations (4, 20 or 100 uM) for sixty hours. During incubation, cells were kept in a 5% CO2 humid atmosphere at 37° C. At the end of the incubation, the media were removed and stored frozen until assayed. The concentrations of IL-6 and sICAM-in culture supernatants were measured by specific ELISA.

[3] = tested on: IL-6 in HK2 human transformed kidney proximal tubule cells; test: IL-6 level in HK-2 cell medium after TNF-alpha stimulation (ELISA); assay type: cell-based; settings: after TNF-alpha inflammatory stimulation, FIG. 6, FIG. 10
Method: as §2
Dilute the capture antibody to the working concentration in PBS, pH 7.4 without carrier protein. Add 61 uL of stock antibody (360 ug/mL) to 10.939 mL of PBS, gently vertex. Immediately coat a 96 well microplate (Immulon 4 HBX) with 100 uL per well of the diluted capture antibody. Seal the plate and incubate it overnight in cold (4° C.). (PBS: 8.1 mM Na2HPO4, 1.5 mM KH2PO4, 137 mM NaCl, 2.7 mM KCl, pH 7.4, 0.2 um filtered). Next day empty the wells and wash the wells three times, each time using 340 uL of wash buffer per well. (wash buffer: PBS, pH 7.4 containing 0.05% Tween-20).
Prepare blocking buffer, 35 mL per plate. To prepare blocking buffer, add 0.35 grams of BSA and 1.75 grams of sucrose to 35 mL of PBS, pH 7.4, and mix the contents gently. Add 300 uL of blocking buffer to each well and incubate the plate for a minimum of 1 hour at room temperature. Empty the wells and wash wells three times, each time using 340 uL of wash buffer per well.
Prepare a 8 point standard curve using 2-fold serial dilutions in reagent diluent. Dilute stock standard, recombinant IL-6, 70 ng/mL to an initial concentration of 2400 ng/mL in reagent diluent. Then further dilute the standard to a working range, 1200, 600, 300, 150, 75, 37.5, 18.75 and 9.375 ng/mL using reagent diluent. (to prepare reagent diluent, add 0.4 grams of BSA to 40 mL of PBS, pH 7.4 and gently vertex). Also dilute 24 uL of each sample medium (from HK-2 cell cultures) with 376 uL of reagent diluent. Add 100 uL of standard or sample per well, seal the plate and incubate it overnight in cold (4° C.).
Next day, empty the wells and wash wells three times, each time using 340 uL of wash buffer per well. […]

T1 sequence (P36894 24-152 limits assumed, species assumed): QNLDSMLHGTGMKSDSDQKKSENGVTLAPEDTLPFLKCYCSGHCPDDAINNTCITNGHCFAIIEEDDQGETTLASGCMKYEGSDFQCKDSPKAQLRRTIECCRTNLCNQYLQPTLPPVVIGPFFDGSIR

Substance	anti-inflammatory activity (HK-2 cells)	other results
CIVNSSDDFLCKKYRS [SEQ ID NO:16, negative control peptide]	–	specific binding to ALK3 / inhibition of specific binding of labeled TDF-1 to ALK3 receptor [1]: does not inhibit; specific binding to BMPR-2 / inhibition of specific binding of labeled TDF-1 to BMPR-2 receptor [2]: does not inhibit
CLFDDSSNVICKKYRS [SEQ ID NO:15]	very weak anti-inflammatory activity	–
CYFDDNSNVICKKYRS [SEQ ID NO:42]	no anti-inflammatory activity	–
CYFDDSSNVICK [SEQ ID NO:21]	no anti-inflammatory activity	specific binding to ALK3 / inhibition of specific binding of labeled TDF-1 to ALK3 receptor [1]: specifically binds
CYFDDSSNVICKK [SEQ ID NO:20]	no anti-inflammatory activity	–
CYFDDSSQVICKKYRS [SEQ ID NO:43]	–	effect on level of IL-6 in HK2 cell medium [3]: brings the IL-6 level down below the basal level
TP2.006: peptide printed as SEQ ID NO:45 in FIG. 12 legend; conflicts with TP2.003 = SEQ ID NO:45 in b271 (CYFDDSSNVLCKKYRS)	no anti-inflammatory activity	–
